Measured values taken from PMC7762786, “The discovery of novel antitrypanosomal 4-phenyl-6-(pyridin-3-yl)pyrimidines” (European Journal of Medicinal Chemistry, 2021).

What was measured:
[1] = test system: Trypanosoma brucei rhodesiense STIB900 (bloodstream trypomastigotes); experiment: In vitro antitrypanosomal activity, Alamar Blue assay; assay type: cell-based; conditions: 70 h, STIB900 bloodstream forms, 70 h incubation, read-out: IC50 T. b. rhodesiense
Method: Assays were performed as described by Bernal et al.. In vitro antitrypanosomal activities of compounds were determined against Trypanosoma brucei rhodesiense STIB900 (bloodstream trypomastigotes) where the parasitic stock was isolated in 1982 from a human patient in Tanzania. […] Then, 10 μl of Alamar Blue (resazurin, 12.5 mg in 100 mL double-distilled water) was added to each well and incubation continued for a further 2–4 h. Plates were read with a Spectramax Gemini XS microplate fluorometer (Molecular Devices Cooperation, Sunnyvale, CA, USA) using an excitation wavelength of 536 nm and an emission wavelength of 588 nm.

[2] = In vitro cytotoxicity with L6 cells, Alamar Blue assay; assay type: cell-based, rat; conditions: L6 rat skeletal myoblasts, 70 h incubation
Method: (§1) In vitro cytotoxicity with L6 cells (a […] cell line derived from rat skeletal myoblasts) were performed in 96-well microtiter plates with each well containing 100 μl of RPMI 1640 medium supplemented with 1% L-glutamine (200 mM) and 10% fetal bovine serum and 4000 L6 cells. Serial drug dilutions from 100 to 0.002 μg/mL were prepared and after 70 h of incubation the plates were microscopically inspected to ensure the validity of control wells and sterile conditions. Then, 10 μl of Alamar Blue was added to each well and the plates incubated for an additional 2 h. Plates were read with a Spectramax Gemini XS microplate fluorometer (Molecular Devices Cooperation, Sunnyvale, CA, USA) using an excitation wave length of 536 nm and an emission wave length of 588 nm.

[3] = test system: L6 cells (rat skeletal myoblasts); experiment: as above; assay type: cell-based
Method: as §1

[4] = L6 cells (rat skeletal myoblasts)

## COc1ccc(-c2cc(-c3cccnc3)nc(N)n2)cc1OC [Compound 20, 4-(3,4-Dimethoxyphenyl)-6-(pyridin-3-yl)pyrimidin-2-amine]
other
  melting point: 165 to 167 °C

## COc1cccc(-c2cc(-c3cccnc3)nc(N)n2)c1 [Compound 15, 4-(3-Methoxyphenyl)-6-(pyridin-3-yl)pyrimidin-2-amine]
other
  melting point: 162 to 164 °C

## Nc1nc(-c2ccc(Br)cc2)cc(-c2cccnc2)n1 [Compound 19, 4-(4-Bromophenyl)-6-(pyridin-3-yl)pyrimidin-2-amine]
other
  melting point: 210 to 211 °C

## c1cncc(-c2cc(-c3ccc4c(c3)OCO4)ncn2)c1 [Compound 10, 4-(2H-1,3-benzodioxol-5-yl)-6-(pyridin-3-yl)pyrimidine]
[1]
  IC50: 6.7 µM
other
  melting point: 173 to 175 °C
[2]; [4]
  CC50 at 70 h: > 100 µM

## Nc1nc(-c2cccnc2)cc(-c2cccnc2)n1 [Compound 12, 4,6-Bis(Pyridin-3-yl)pyrimidin-2-amine]
other
  melting point: 229 to 230 °C

## Nc1nc(-c2cccnc2)cc(-c2cccc(F)c2)n1 [Compound 17, 4-(3-Fluorophenyl)-6-(pyridin-3-yl)pyrimidin-2-amine]
other
  melting point: 196 to 198 °C

## Nc1nc(-c2ccccc2)cc(-c2cccnc2)n1 [Compound 11, 4-Phenyl-6-(pyridin-3-yl)pyrimidin-2-amine]
other
  melting point: 172 to 175 °C

## COc1cccc(-c2cc(-c3cccnc3)ncn2)c1 [Compound 5, 4-(3-Methoxyphenyl)-6-(pyridin-3-yl)pyrimidine]
other
  melting point: 124 to 125 °C

## COc1ccc(-c2cc(-c3cccnc3)ncn2)cc1 [Compound 8, 4-(4-Methoxyphenyl)-6-(pyridin-3-yl)pyrimidine]
other
  melting point: 165 to 167 °C

## c1cncc(-c2cc(-c3cccnc3)ncn2)c1 [Compound 2, 4,6-Bis(Pyridin-3-yl)pyrimidine]
other
  melting point: 206 to 207 °C

## Nc1nc(-c2cccnc2)cc(-c2ccccc2Br)n1 [Compound 14, 4-(2-Bromophenyl)-6-(pyridin-3-yl)pyrimidin-2-amine]
other
  melting point: 149 to 152 °C

## COc1ccccc1-c1cc(-c2cccnc2)ncn1 [Compound 3, 4-(2-Methoxyphenyl)-6-(pyridin-3-yl)pyrimidine]
other
  melting point: 102 to 104 °C

## Brc1cccc(-c2cc(-c3cccnc3)ncn2)c1 [Compound 6, 4-(3-Bromophenyl)-6-(pyridin-3-yl)pyrimidine]
other
  melting point: 162 to 163 °C

## 4-(2-Methoxyphenyl)-6-(pyridin-4-yl)pyrimidine [Compound 24]
[3]
  CC50: > 100 µM

## COc1ccc(-c2cc(-c3cccnc3)nc(N)n2)cc1 [Compound 18, 4-(4-Methoxyphenyl)-6-(pyridin-3-yl)pyrimidin-2-amine]
other
  melting point: 163 to 165 °C

## COc1ccc(-c2cc(-c3cccnc3)ncn2)cc1OC [Compound 9, 4-(3,4-Dimethoxyphenyl)-6-(pyridin-3-yl)pyrimidine]
other
  melting point: 131 to 134 °C

## Nc1nc(-c2cccnc2)cc(-c2ccc3c(c2)OCO3)n1 [Compound 21, 4-(2H-1,3-benzodioxol-5-yl)-6-(pyridin-3-yl)pyrimidin-2-amine]
[1]
  IC50: 12.9 µM
other
  melting point: 236 to 238 °C
[2]; [4]
  CC50 at 70 h: > 100 µM

## Nc1nc(-c2cccnc2)cc(-c2cccc(Br)c2)n1 [Compound 16, 4-(3-Bromophenyl)-6-(pyridin-3-yl)pyrimidin-2-amine]
other
  melting point: 169 to 171 °C

## 4-(2-Methoxyphenyl)-6-(pyridin-2-yl)pyrimidin-2-amine [Compound 23]
[3]
  CC50: > 100 µM

## COc1cc([C@@H]2c3cc4c(cc3[C@H](O)[C@H]3COC(=O)[C@H]23)OCO4)cc(OC)c1OC [Podophyllotoxin, reference compound]
[2]
  CC50 at 70 h: 0.019 µM

## 4-(2-Methoxyphenyl)-6-(pyridin-4-yl)pyrimidin-2-amine [Compound 25]
[3]
  CC50: > 70 µM

## Fc1cccc(-c2cc(-c3cccnc3)ncn2)c1 [Compound 7, 4-(3-Fluorophenyl)-6-(pyridin-3-yl)pyrimidine]
other
  melting point: 193 to 195 °C

## c1ccc(-c2cc(-c3cccnc3)ncn2)cc1 [Compound 1, 4-Phenyl-6-(pyridin-3-yl)pyrimidine]
other
  melting point: 116 to 118 °C
